The source of these data is the METLIN SMRT retention time set (Domingo-Almenara et al. 2019).

The data set is described as follows: gradient 5% acetonitrile 3 min, to 50% in 2 min, to 85% in 15 min, held 3 min, 100 µL/min. The conditions noted are these: column: Zorbax Extend-C18 2.1 x 50 mm; eluents: water / acetonitrile, 0.1% formic acid. Summed up:
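The mobile phases were water and acetonitrile, each with 0.1% formic acid, pumped at 100 μL/min through a Zorbax Extend-C18 column (2.1 × 50 mm, 1.8 μm). Pure standards were injected as mixtures of ~100 molecules and detected by a quadrupole time-of-flight mass spectrometer in positive and negative ionization mode. Retention time came from computationally picked adduct peaks, each inspected by hand.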
The molecule `Cc1cc(NC(=O)CCCS(=O)(=O)c2ccc(Cl)cc2)n(C)n1` displayed an RP-LC retention time of 648 s.
As for `COc1ccccc1NS(=O)(=O)c1cn(C(C)C)c2ncccc12`, the figure is 886 s; as for `Cc1ccc(-c2nnc(SCc3noc(CCC(=O)Nc4cc(C)on4)n3)o2)cc1`, 846 s.
`O=C(Cn1cnc(-c2ccc(Cl)cc2)cc1=O)NCc1ccccc1OC(F)(F)F` displayed an RP-LC retention time of 910 s.
In the case of `C[C@@H]1c2ccccc2CCN1C(=O)Cc1ccccc1F` it was 950 s; in that of `COc1cc(=O)n(-c2ccccc2)nc1C(=O)NC(c1ccccc1)c1ccccc1`, 828 s; in that of `CC(C)Cc1ccc(S(=O)(=O)N2CCc3nc[nH]c3C2)cc1`, 693 s.
As for `Cn1nc(C(=O)N2CCOCC2)c2c1CCN(C(=O)Nc1ccc(F)c(Cl)c1)C2`, the figure is 1070 s; as for `CCCn1ccc2sc(C)c(C(=O)N(CC)Cc3ccccc3)c2c1=O`, 884 s; as for `Cc1ccc(C)c(S(=O)(=O)NCc2ccc(C(=O)N3CCCCC3C)cc2)c1` (stereo not drawn), 961 s.
As for `O=C(NCCc1csc(-c2cccs2)n1)C1CCN(S(=O)(=O)Cc2ccccc2)CC1`, the figure is 855 s; as for `CCCS(=O)(=O)N1CC2(CCCCC2)CC1COCc1ccccc1` (stereo not drawn), 1260 s; as for `Cc1nc2cccnc2n1CCN1CCN(C(=O)Nc2ccc(F)cc2)CC1`, 584 s.
`Cc1cc(C)cc(NC(=O)Cn2nc(N3CCSCC3)c3ccccc3c2=O)c1`: the RP-LC retention time was 1020 s.
In the case of `COC(=O)CCNC(=O)C1c2ccccc2C(=O)N(c2ccccc2)C12CCCCC2` (stereo not drawn) it was 826 s; in that of `O=C(CN1C(=O)C2CCCCN2c2ccc(C(=O)N3CCOCC3)cc21)NCc1ccc(F)cc1` (stereo not drawn), 734 s.
In the case of `Cc1cc(NC(=O)c2ccc3c(c2)CCCC3)n(C(C)C)n1` it was 835 s; in that of `COc1ccc2cccc(NC(=O)c3ccco3)c2n1`, 1010 s; in that of `Cc1cc(-c2nnc(NC(=O)c3cnn(-c4ccccc4)c3C)o2)c(C)o1`, 798 s.
As for `Cc1ccc(-c2nc(Cn3nnc(C(=O)NC4CCCC4)c3C)c(C)o2)cc1`, the figure is 1060 s; as for `COc1cccc(C(=O)NC2(C(F)(F)F)C(=O)N(CC(C)C)C3=C2C(=O)CC(C)(C)C3)c1` (stereo not drawn), 1040 s.
`COc1ccccc1CNC(=O)Cc1csc(NC(=O)Nc2cccc(Cl)c2)n1` gave an RP-LC retention time of 837 s.
As for `Cc1ccc(S(=O)(=O)Nc2ccc(-c3cn4ccc(C)nc4n3)cc2)c(C)c1`, the figure is 679 s.
Regarding `COc1ccccc1NC(=O)Cn1c(=O)cc(-c2nc(C3CC3)no2)c2ccccc21`, the RP-LC retention time is 1280 s.
In the case of `Cc1nnc2c(=O)n(CC(=O)N3CCN(c4ccccn4)CC3)c3cccnc3n12` it was 548 s.
Regarding `CSc1cccc(NC(=O)COc2cc(C(F)(F)F)c3c(C)nn(C)c3n2)c1`, the RP-LC retention time is 756 s.
As for `COc1cccc(CNC(=O)C2(C)CCCN(C(=O)Nc3cc(C)cc(C)c3)C2)c1` (stereo not drawn), the figure is 961 s; as for `CSc1ccc(CNC(=O)CCc2c(-c3ccc(F)cc3)nc3ccccn23)cc1`, 692 s; as for `CCN1C(=O)C2(CCN(S(=O)(=O)c3cccc(C(F)(F)F)c3)CC2)c2ccccc21`, 1120 s.
With `COc1ccc(NC(=O)N2CCN(c3ccc(=O)n(-c4ccc(C)cc4)n3)CC2)c(OC)c1`, the RP-LC retention time stood at 804 s.
As for `CCc1nc2c(NC(=O)Cc3cccnc3)cccn2n1`, the figure is 556 s; as for `O=C(c1ccc(Nc2c(-c3ccccc3)nc3cnccn23)cc1)N1CCOCC1`, 655 s.
For `Cc1cccc(-c2nc(-c3nnn(-c4ccccc4)c3C)no2)c1`, the RP-LC retention time turned out to be 1140 s.
As for `Cc1cc(C)c2c(N3CCOCC3)nc(C(=O)NCCC(C)C)nc2n1`, the figure is 648 s; as for `c1cn(Cc2nc(-c3ccc4c(c3)OCO4)no2)cn1`, 605 s; as for `CC(C)NC(=O)c1ccc(OCC2CCN(C(=O)c3ccc(C#N)cc3)CC2)cc1`, 811 s.
In the case of `COC(=O)c1ccccc1NC(=O)c1cnc2c(c1)c(=O)n(C)c(=O)n2-c1ccccc1` it was 1030 s.
As for `Cn1cnc2c1CN(C(=O)c1ccc(Br)o1)CC2`, the figure is 563 s.
On to `CCn1c(C(=O)N2CCN(c3cccc(OC)c3)CC2)cc2sccc21`, for which the RP-LC retention time is 1050 s.
Regarding `Cc1oc(-c2ccc(C(=O)NCCCN3CCOCC3)cc2)nc1CN1CCc2ccccc21`, the RP-LC retention time came to 603 s.
In turn, `COc1ccc(-c2cc(C(=O)N3CCN(S(=O)(=O)c4ccc(F)c(C)c4)CC3)[nH]n2)cc1` returned an RP-LC retention time of 910 s.
In turn, `O=C(CSc1ccc2nnc(-c3cccnc3)n2n1)NC1CCCCC1` displayed an RP-LC retention time of 592 s.
In the case of `CCOC(=O)c1csc(NC(=O)Cc2ccc(S(=O)(=O)CC)cc2)n1` it was 681 s.
As for `CCCc1noc(-c2ccc3nnc(CC(=O)Nc4ccc(Cl)cc4)n3c2)n1`, the figure is 937 s; as for `Cc1ccccc1Nc1c(-c2cc(Br)ccc2F)nc2ccc(Cl)cn12`, 1100 s.
As for `CC(=O)c1ccc(NC(=O)CCc2c(C)nn(-c3cc(N4CCCC4)ncn3)c2C)cc1`, the figure is 769 s; as for `Cc1cc(C)c2[nH]c3c(c(=O)c2c1)CN(CC(=O)Nc1ccc2c(c1)OCCO2)CC3`, 604 s; as for `CCNC(=O)C1CCCN(c2nc3ncn(CC(=O)NCc4ccc5c(c4)OCO5)c(=O)c3s2)C1` (stereo not drawn), 640 s.
`CCOC(=O)c1cc(-c2ccc(OC)c(S(=O)(=O)N3CCN(c4ccccn4)CC3)c2)on1`: the RP-LC retention time worked out at 726 s.
In the case of `CCNc1nc(C)cc(N2CCN(S(=O)(=O)c3ccc(OC)c(C)c3)CC2)n1` it was 723 s; in that of `COc1ccc(N2CCN(C(=O)C3CCCN(c4ncnc5c4nc4n5CCCCC4)C3)CC2)cc1` (stereo not drawn), 738 s.
`Cc1ccc(NC(=O)N2CCC(n3cnc4cc(Cl)ccc4c3=O)CC2)cc1C` returned an RP-LC retention time of 911 s.
`COCCNC(=O)c1cc2c(=O)n(Cc3ccccc3)ccc2s1`: the RP-LC retention time came to 719 s.
As for `O=C(CN1CCc2[nH]c3c(F)c(Cl)ccc3c(=O)c2C1)Nc1cc(F)ccc1F`, the figure is 691 s.
As for `CC(C)CC(=O)N(C)CCc1noc(-c2ccc(C(=O)N3CCOCC3)cc2)n1`, the figure is 695 s.
As for `CCOc1ccccc1NC(=O)C1CCCN1S(=O)(=O)c1cc2c(cc1C)NC(=O)C(C)O2` (stereo not drawn), the figure is 784 s; as for `COc1ccc(N2CCN(C(=O)C3CCCN(c4ccncc4)C3)CC2)cc1` (stereo not drawn), 593 s; as for `CC(=O)N1CCN(c2nc(C)cc(N3CCCCC3)n2)CC1`, 598 s.
`CCOc1ccc(NC(=O)N2CCN(c3cnn4c(C)nnc4c3)CC2)cc1` came in with an RP-LC retention time of 648 s.
Take `Cc1noc([C@@H]2CN(Cc3ccc(F)c(Cl)c3)C[C@H]2CO)n1`: the RP-LC retention time was 605 s.
In the case of `COc1ccc(-n2c(=O)c(C(=O)NCc3cc(F)cc(F)c3)c(O)c3cccnc32)cc1` it was 1170 s.
In the case of `CC(C)c1noc(-c2cccnc2N2CCCN(Cc3cccc(C(F)(F)F)c3)CC2)n1` it was 794 s; in that of `O=C(NCc1ccc(F)c(Cl)c1)c1cn2ccccc2n1`, 723 s.
As to `Cc1cc2c(cc1S(=O)(=O)N1CCCC1C(=O)NC1CCCCCCC1)OC(C)C(=O)N2` (stereo not drawn), the RP-LC retention time came out at 857 s.
Consider `CCC(C)NC(=O)C1CCN(Cc2c(C)n(CC)c3ccccc23)CC1` (stereo not drawn), for which the RP-LC retention time came out at 667 s.
In turn, `CCOc1ccc(CNC(=O)C2CCN(S(=O)(=O)N(CC(C)C)CC(C)C)CC2)cc1OC` yielded an RP-LC retention time of 1040 s.
Regarding `COCc1nc(N2CCN(c3ccccc3F)CC2)ncc1C(=O)O`, the RP-LC retention time amounted to 827 s.
In the case of `CC(NC(=O)c1cccc2[nH]ccc12)C(=O)N1CCCc2ccccc21` (stereo not drawn) it was 822 s; in that of `COc1ccc(-c2noc(-c3nc(C)no3)n2)cc1OC`, 888 s.
Regarding `CC(C)NC(=O)N(CC(=O)N1CCc2sccc2C1COc1ccccc1)CC1CC1` (stereo not drawn), the RP-LC retention time was determined as 943 s.
In the case of `O=C(NC(c1ccccc1)c1nnc(N2CCOCC2)o1)c1ccccc1F` (stereo not drawn) it was 733 s.
In the case of `CCCNC(=O)C1CCCN(c2nc3ncn(CC(=O)NCc4ccccc4)c(=O)c3s2)C1` (stereo not drawn) it was 669 s; in that of `Cc1ccc(NC(=O)C2CCCN(c3ncnc4c3nc3n4CCCCC3)C2)cc1C` (stereo not drawn), 870 s; in that of `O=C(c1ccoc1)N1CC(Oc2ccc(-c3nc(-c4ccccc4)no3)cc2)C1`, 1040 s.
In the case of `O=C(c1cccs1)N1CCN(Cc2ccc(=O)n(CC3CC3)c2)CC1` it was 480 s.
Turning to `CCOc1ccc(CNC(=O)C2CCCN(c3ccc(=O)n(-c4ccc(CC)cc4)n3)C2)cc1` (stereo not drawn), the RP-LC retention time stood at 940 s.
In the case of `Cc1sc(-c2cc(C(F)(F)F)on2)cc1S(=O)(=O)N1CCN(c2cccc(Cl)c2)CC1`, the RP-LC retention time stood at 1440 s.
In the case of `O=C(c1ccc(/C=C/c2n[nH]c3ccccc23)cc1)N1CCNCC1` it was 648 s.
